# Experimental data from patent publication US12552797B2, “Process for making (3-[cyclopropylethoxy(difluoro)methyl]-6-6[5-fluoro-6-(2,2,2-trifluoroethoxy-3-pyridyl]- [1,2,4]triazolo[4,3-a]pyrazine” (Praxis Precision Medicines, Inc., priority 2019, dated 2026).
# Tests used:
# [1] = Phase 1 single/multiple ascending dose and food effect trial in healthy volunteers: safety and tolerability; assay type: in vivo, human
# Description: This is a three-part clinical trial to evaluate the safety, tolerability, PK, and food effect of Compound 1 in healthy volunteers aged 18 to 55 years inclusive. The clinical trial is comprised of the following 3 parts: • Part A is randomized, double-blinded and placebo-controlled. Part A is designed to investigate the safety and PK of single ascending doses of Compound 1. • Part B is randomized, double-blinded and placebo-controlled. […]
# Dosing in each dose level cohort starts with 2 sentinel participants with one of the 2 participants randomized to receive Compound 1 and the other participant randomized to receive placebo. The safety and tolerability of each sentinel participant are monitored until Day 6 and reviewed prior to dosing the remainder of participants in each cohort. […]
# (§1) A dose level is evaluated in Part B if determined to be safe and tolerable in Part A. It is anticipated that 3 dose levels are evaluated in Part B in a total of 3 cohorts (Cohorts B1-B3). […]
# as §1
# [2] = Phase 1 single/multiple ascending dose and food effect trial in healthy volunteers: pharmacokinetics (plasma, urine); assay type: in vivo, human
# Description: This is a three-part clinical trial to evaluate the safety, tolerability, PK, and food effect of Compound 1 in healthy volunteers aged 18 to 55 years inclusive. The clinical trial is comprised of the following 3 parts: • Part A is randomized, double-blinded and placebo-controlled. Part A is designed to investigate the safety and PK of single ascending doses of Compound 1. • Part B is randomized, double-blinded and placebo-controlled. Part B is designed to investigate the safety and PK of multiple ascending doses of Compound 1 (selected based on the results from Part A). • Part C is a randomized, open-label, crossover design to investigate the PK of a single dose of Compound 1 in the fasted and fed state. Objectives and Endpoints: Part A
# (§2) Part C may commence once the safety and PK have been adequately evaluated in the last cohort of Part A. Up to 16 participants receive two doses of Compound 1, one dose after a minimum of 10 hours fasting and one after consumption of a high-fat, high calorie meal in a randomized crossover design, with a 7 day washout in between periods. Up to 3 additional days of washout may be added between fasted and fed dosing based on the observed half-life in Part A.
# A validated bioanalytical method is utilized for the determination of plasma and urine concentrations of Compound 1. Plasma and urine concentrations are summarized by dose group/condition and timepoint using descriptive statistics. In addition to descriptive statistics specified in General Conditions above, plasma concentrations are also summarized using number and percentage of concentrations below the level of quantification (BLQ) and coefficient of variation (CV %).
# Pharmacokinetic parameters are estimated from concentration-time data using standard non-compartmental methods. Urine PK parameters are estimated from urine concentration and urine volume data. PK parameters are summarized by dose group/condition using descriptive statistics. In addition to descriptive statistics specified in General Conditions above, PK parameters are summarized using CV %, geometric mean, and geometric coefficient of variation. PK parameters are assessed for linearity and dose proportionality using the power model where feasible. To test for a food effect in Part C, the geometric mean ratio (In transformed) of the test treatment (ie, fed condition) relative to the reference treatment (ie, fasted condition) are estimated with the 90% CIs calculated for Cmax and AUC0-inf. […]
# as §2, with “Participants” for “Up to 16 participants”, “Up to 3 additional days of washout may be added between fasted and fed dosing based on the observed half-life in Part A.” left out
structure (smiles),measurement,setting,value
"CCOC(F)(F)c1nnc2cnc(-c3cnc(OCC(F)(F)F)c(F)c3)cn12 [Compound 1, 3-(ethoxydifluoromethyl)-6-(5-fluoro-6-(2,2,2-trifluoroethoxy)pyridin-3-yl)-[1,2,4]triazolo[4,3-a]pyrazine]",tolerability,"[1]; Part A single ascending doses, first four of six planned cohorts, preliminary analysis",well tolerated
same,"Serious Adverse Events, severe Adverse Events, or Adverse Events leading to study withdrawal or discontinuation","[1]; Part A, first three cohorts tested",no reported
same,time to maximal concentrations,"[2]; healthy volunteers, oral capsules, fasted, preliminary data",2 to 3 h
same,exposure versus dose level,"[2]; healthy volunteers, preliminary data",increase proportionate to dose level
same,half-life,"[2]; human, plasma, oral, average across groups, healthy volunteers, preliminary data, read-out: Terminal elimination half-life (converted)",4.75 days
same,time to 90% of steady-state,[2]; once daily dosing,approximately 2 weeks
